US20160309708A1, “POLYCARBOXYLIC ACID ESTER ALKYL DERIVED FROM BRANCHED AND STRAIGHT ALCOHOL OF PLANT ORIGIN, AND USE OF AN ALKYL ESTER IN AGROCHEMICAL FORMULATIONS” (priority 2013, published 2016)

Experiment: Solubility limit of active ingredients in the alkyl esters of polycarboxylic acids at 25° C.
Format: physicochemical
Conditions: under agitation, solvent: alkyl esters of polycarboxylic acids

Compound	solubility limit in alkyl esters of polycarboxylic acids of this invention [GRAMS PER LITER]
CC(C)(C)C(O)(CCc1ccc(Cl)cc1)Cn1cncn1 (centres unmarked) [TEBUCONAZOLE, Tebuconazole]	240
Cc1c(COC(=O)[C@@H]2[C@H](/C=C(\Cl)C(F)(F)F)C2(C)C)cccc1-c1ccccc1 (racemic) [BIFENTRIN, Bifenthrin]	702
Abamectin	116
CCCC1COC(Cn2cncn2)(c2ccc(Cl)cc2Cl)O1 (centres unmarked) [PROPICONAZOLE, Propiconazole]	1568
CCOP(=S)(OCC)Oc1nc(Cl)c(Cl)cc1Cl [CHLORPYRIFOS, Chlorpyrifos]	900
